Results on 4 compounds are retold here after patent US10157261B2, “Transcriptome-wide design of selective, bioactive small molecules targeting RNA” (The Scripps Research Institute, priority 2013, dated 2018).

Some results are limits rather than exact numbers.

Series [1] deals with miR-96. Nature of the series: qRT-PCR of mature miRNA in MCF7 cells. The format is cell-based, human. How it is done:
(§1) MCF7 cells were cultured in either 6-well or 12-well plates, and total RNA was extracted using TRIzol LS reagent (Ambion) per the manufacturer's protocol. Approximately 200 ng of total RNA was used in reverse transcription (RT) reactions, which were completed using a Taqman MicroRNA RT Kit (Applied Biosystems) or a miScript II RT kit (Qiagen) per the manufacturer's protocol. qRT-PCR was performed on a 7900HT Fast Real Time PCR System (Applied Biosystem) using Taqman Universal PCR Master Mix or power SYBR green master mix (Applied Biosystems). All primer sets for mature miRNAs were purchased from Applied Biosystems. The expression level of mature miRNAs was normalized to U6 small nuclear RNA.
(§2) Pri-, pre-, and mature miR-96 RT-PCR products were analyzed on a denaturing 10% polyacrylamide gel stained with ethidium bromide. Expression levels were normalized to GAPDH.

Series [2] deals with 5′UUU/3′AUA RNA (loop near the processing site of miRNA-96 precursor). Nature of the series: in solution, fluorescence-based binding affinity assay. Also noted: species or system human. How it is done:
(§3) Dissociation constants were determined using an in solution, fluorescence-based assay (Disney et al., J. Am. Chem. Soc. 130, 11185-11194 (2008)). The RNA of interest was folded in 1× Assay Buffer (8 mM Na2HPO4, pH 7.0, 190 mM NaCl, 1 mM EDTA and 40 μg/mL BSA) by heating at 60° C. for 5 min and slowly cooling to room temperature. A selected fluorescently labeled compound was added to a final concentration of 50 nM for compounds 1-Fl, 4-Fl, and 5-Fl or 500 nM for compound 2. Serial dilutions (1:2) were then completed in 1× Assay Buffer supplemented with 50 nM of compounds 1-Fl, 4-Fl, or 5-Fl or 500 nM of 2. The solutions were incubated for 30 min at room temperature and then transferred to a 96-well plate and fluorescence intensity measured. The change in fluorescence intensity as a function of RNA concentration was fit to the following equation (Wang & Rando, Chem. Biol. 2, 281-290. (1995)): I=I0+0.5Δε(([FL]0+[RNA]0+Kt)−(([FL]0+[RNA]0+Kt)^2−4[FL]0[RNA]0)^0.5) where I and I0 are the observed fluorescence intensity in the presence and absence of RNA respectively, Δε is the difference between the fluorescence intensity in the absence of RNA and in the presence of infinite RNA concentration, [FL]0 and [RNA]0 are the concentrations of small molecule and RNA, respectively, and Kt is the dissociation constant.
(§4) The targetable loops (motifs) were embedded into C1 (FIG. 1) so that affinity measurements could be completed. The secondary structures of the RNAs as predicted by RNAstructure (Mathews et al., Proc. Natl. Acad. Sci. U.S.A. 101, 7287-7292 (2004).) and representative binding curves are shown in (FIG. 4D-4I).

Series [3] relates to miR-96-FOXO1 luciferase model system. Description: Dual luciferase assay, miR-96 3′ UTR target. The format is cell-based, human. As to conditions: 40 μM, MCF7 cells. How it is done:
MCF7 cells were grown in 96-well plates to ˜80% confluency in complete growth medium. The cells were transiently transfected with 100 ng of plasmid encoding either the miR-96 3′ UTR target or a mutated 3′ UTR target using Lipofectamine 2000 per the manufacturer's protocol. Approximately 5 h post transfection, the small molecule of interest was added in complete growth medium, and the cells were incubated for another 20 h. Luciferase activity was then measured using a Dual Glo Luciferase Assay System (Promega) per the manufacturer's protocol. The values reported are the average of at least three measurements, and errors are the corresponding standard deviations.

Series [4] has as its system MCF7 cells. Nature of the series: APO BrdU TUNEL assay. The format is cell-based, human. Conditions: 40 μM. The protocol:
ON-TARGETplus SMARTpool FOXO1 siRNA and ONTARGETplus GAPD Control Pool were purchased from Dharmacon (Thermo Scientific) and were used at a final concentration of 100 nM. MCF7 cells were reverse transfected in a 6-well plate using Lipofectamine RNAiMAX reagent (Invitrogen) per the manufacturer's protocol.
MCF7 cells were grown in 6-well plates to 70-80% confluency. For experiments in which RNAi was used to knock down FOXO1 or GAPDH expression, the cells were first transfected as described above. Cells were treated with small molecules for 20 h followed by completion of an APO BrdU TUNEL assay (Molecular Probes) per the manufacturer's protocol. Flow cytometry was performed using a BD LSRII instrument (BD Biosciences). At least 10,000 events were used for analysis.

The subject of series [5] is miR-183. Nature of the series: qRT-PCR of mature miRNA in MCF7 cells. The format is cell-based, human. Conditions: 40 μM, 20 h. The protocol:
as §1

In series [6] the test system is miR-182. Description: qRT-PCR of mature miRNA in MCF7 cells. Format: cell-based, human. As to conditions: 40 μM, 20 h. The protocol: as §1
Series [7] has as its system miR-210. Description: qRT-PCR of mature miRNA. As to conditions: 500 nM, ACHN renal cancer cell line. Format: cell-based, human. How it is done:
as §1

Series [8] concerns the target 5′CGA/3′GGU RNA. Description: in solution, fluorescence-based binding affinity assay. Also noted: species or system human. Conditions: read-out: Dissociation constants, 5′CGA/3′GGU. The protocol: as §3, §4
Series [9] has as its target 5′CGAUU/3′GGUAUA RNA. Described as above. The arrangement: species or system human. As to conditions: read-out: Dissociation constants, 5′CGAUU/3′GGUAUA. The protocol: as §3, §4
In series [10] the test system is FOXO1 protein. Description: Western blotting. The format is cell-based, human. Conditions: 50 nM, MCF7 cells. How it is done: MCF7 cells were grown in 6-well plates to ˜80% confluency in complete growth medium. […] Total protein was extracted using M-PER Mammalian Protein Extraction Reagent (Pierce Biotechnology) using the manufacturer's protocol. Extracted total protein was quantified using a Micro BCA Protein Assay Kit (Pierce Biotechnology). Approximately 40 μg of total protein was resolved on an 8% SDS-polyacrylamide gel, and then transferred to a PVDF membrane. The membrane was briefly washed with 1× Tris-buffered saline (TBS), and then blocked in 5% milk in 1×TBST (1×TBS containing 0.1% Tween-20) for 1 h at room temperature. The membrane was then incubated in 1:1000 FOXO1 primary antibodies (Cell Signaling Technology) in 1×TBST containing 3% BSA overnight at 4° C. The membrane was washed with 1×TBST and incubated with 1:2000 anti-rabbit IgG horseradish-peroxidase secondary antibody conjugate (Cell Signaling Technology) in 1×TBS for 1 h at room temperature. After washing with 1×TBST, protein expression was quantified using SuperSignal West Pico Chemiluminescent Substrate (Pierce Biotechnology) per the manufacturer's protocol. The membrane was then stripped using 1× Stripping Buffer (200 mM glycine, pH 2.2 and 0.1% SDS) followed by washing in 1×TBS. […] Image J software from the National Institutes of Health was used to quantify band intensities.

The test system of series [11] is pri-miR-96. Description: qRT-PCR of pri-miR-96 in MCF7 cells. Format: cell-based, human. The protocol: as §2
In series [12] the target is C1 (cassette RNA). Nature of the series: in solution, fluorescence-based binding affinity assay. Conditions: read-out: Dissociation constants, C1. How it is done:
as §3, with “constant. […]” for “constant.”

Series [13] addresses H Hairpin (DNA hairpin). The series is described as above. Conditions: read-out: Dissociation constants, H Hairpin. How it is done: as §3, with “constant. […]” for “constant.”
Series [14] relates to MCF10A (healthy breast cells). Description: Annexin V/PI assay. Conditions: 50 nM, 72 hours. The format is cell-based, human. The protocol:
Annexin V/PI Assays: MDA MB 231 or MCF-10A cells were grown in 6-well plates to 40-50% confluency. The cells were incubated with 50 nM of small molecule for 72 h and then detached from the surface using accutase. They were washed twice each with ice cold 1×DPBS and 1× Annexin Binding Buffer (50 mM Hepes (pH 7.4), 700 mM NaCl and 12.5 mM CaCl2). The cells were resuspended in 100 μL 1× Annexin Binding Buffer, and then 5 μL Annexin V-APC (eBioscience) were added. The solution was incubated for 10 min at room temperature followed by washing with 1× Annexin Binding Buffer. The cells were then stained with 1 μg/mL propidium iodide in 300 μL of 1× Annexin Binding Buffer for 15 min at room temperature. Flow cytometry was performed using a BD LSRII instrument (BD Biosciences). At least 10,000 events were used for analysis.

Series [15] deals with pre-miR-96. Nature of the series: qRT-PCR of pre-miR-96 in MCF7 cells. Conditions: 50 nM. Format: cell-based, human. How it is done: as §2

As to `C#CCCCC(=O)NCC1O[C@H](O[C@@H]2C(N)C[C@@H](N)C(O[C@@H]3OC(CO)[C@H](O)C(N)C3O)[C@H]2O)C(O)[C@@H](O)[C@@H]1O` (some centres unmarked) [Compound 3], the “effect on miR-96 expression” value in series [1] (200 μM) is “a less, but significant, effect”.

`CN1CCN(c2ccc3nc(-c4ccc5nc(-c6cccc(OCCCC(=O)NCCCN=[N+]=[N-])c6)[nH]c5c4)[nH]c3c2)CC1` [Compound 2]: in series [2], the “binding affinity for the miR-96 precursor” value is listed as “lack of binding affinity”. Also, the “effect on luciferase expression” value in [3] is on record as “no effect”. For the same compound, the induction of apoptosis result in series [4] is “do not induce apoptosis”. Further, the “effect on miR-96 expression” value in series [1] (40 μM, 20 h) was “do not affect”. Besides, in series [5], the “effect on miR-183 expression” value is recorded as “do not affect”. For the same compound, the “effect on miR-182 expression” value in series [6] is given as “do not affect”. Moreover, the “reduction of formation of miR-210” value in [7] was determined as 60%.

`CCCN(CC(=O)N(CCC)CC(=O)N(CC(N)=O)Cc1cn(CCCNC(=O)CCCOc2c(C(C)(C)C)cc(-c3nc4cc(N5CCN(C)CC5)ccc4[nH]3)cc2C(C)(C)C)nn1)C(=O)CCCOc1cccc(-c2nc3ccc(-c4nc5ccc(N6CCN(C)CC6)cc5[nH]4)cc3[nH]2)c1` [BSH-2-H]: the Kd in series [8] is 0.9 ± 0.2 µM; in [2] (read-out: Dissociation constants, 5′UUU/3′AUA), 1.17 ± 0.279 µM; in series [9], 0.085 ± 0.011 µM; in [12], above 4 µM; in series [13], above 50 µM. Moreover, the “increase in FOXO1 protein expressed” value in series [10] amounted to 2.5 fold. In series [11] (50 nM), the “production of pri-microRNA-96” value was “boosting production of the pri-microRNA-96”. Also, in series [11] (24 hours), the “increase of pri-miRNA 96” value is “about 2.3 fold”. Besides, the “production of mature microRNA-96” value in [1] (50 nM) was “significantly inhibited production of the mature microRNA-96”. Moreover, the “effect on mature miRNA-96 levels” value in [1] (1 μM, 0.5 μM and 0.05 μM, 24 hours) is recorded as “reduced mature miRNA-96 levels in a dose-dependent fashion”. Moreover, the “effect on apoptosis in healthy breast cells” value in [14] is listed as “no effect on apoptosis”. In series [15], the “production of pre-microRNA-96” value was “inhibiting production of the pre-microRNA-96”.

Regarding `CN1CCN(c2ccc3nc(-c4ccc(OCCCC(=O)NCCCN=[N+]=[N-])cc4)[nH]c3c2)CC1` [Compound 5], in series [2], the “binding affinity for the miR-96 precursor” value was “lack of binding affinity”. Further, in series [3], the “effect on luciferase expression” value is recorded as “no effect”. In addition, the induction of apoptosis entry in series [4] is listed as “do not induce apoptosis”. Besides, the “effect on miR-96 expression” value in series [1] (40 μM, 20 h) was “do not affect”. Moreover, in series [5], the “effect on miR-183 expression” value is “do not affect”. Further, in series [6], the “effect on miR-182 expression” value was “do not affect”.
